Measurements as given in US9919978B2, “Selenium-doped nano silica sol used for producing selenium-enriched rice and capable of suppressing absorption and accumulation of heavy metals in paddy rice and preparation method therefor” (GUANGDONG INSTITUTE OF ECO-ENV[…] & TECHNOLOGY, priority 2013, dated 2018).

Test system: rice
Experiment: Pot experiment: foliar application on rice grown in arsenic-contaminated soil (Example 4)
Assay type: in vivo, rice (variety Youyou 128)
Description: The pot experiment for showing the effects of relieving the heavy metal poison in rice by foliar application of the selenium-doped nano-silica sol.
The soils to be tested were collected from an arsenic-contaminated rice field, in Yanhong Town, Chenghai District, Shantou City, Guangdong Province, China, the surface layer of the cultivated soils (0-10 cm) in the rice field was taken as the soil, air-dried and sieved, 10 kg of the soil were weighed and filled into barrels, wherein the basic physical and chemical properties of the soil were as follows: pH 6.12, organic matter 2.73%, total nitrogen 1.5 g/kg, total phosphorus 1.02 g/kg, total potassium 11.3 g/kg, CEC 8.75 cmol/kg, total arsenic 93.6 mg/kg, and total selenium 0.879 mg/kg.
Cultivation and treatment of rice: the rice variety was Youyou 128, the rice seed surface was disinfected for 15 minutes with 5% sodium hypochlorite solution, after washing with tap water, germination and seedling were carried out, then the uniform young seedlings were selected and transplanted. […] Each of the treatments was repeated four times, and the rices were harvested after they were matured. The dry weight of rice per pot was weighed, and the arsenic and selenium contents in rice were analyzed.

O=[Se]([O-])[O-].[Na+].[Na+] [1% Se, sodium selenite]
selenium content in rice relative to that after the selenium-doped nano-silica sol with 1% selenium (foliar application): 66% | dry weight of rice grain reduced as compared with the control (foliar application at tillering stage, diluted 100-fold, arsenic-contaminated soil): 13.1% | selenium content in rice (foliar application, diluted 100-fold, control 0.050 mg/kg): 0.180 mg/kg | reduction of arsenic content in rice as compared with the control (foliar application, diluted 100-fold, soil total arsenic 93.6 mg/kg): 19%
